In one assay the target is T1, PIM-3 (Homo sapiens, UniProt Q86V86).
T1 construct: purchased Millipore 14-738
In words: Protein PIM kinase assay (ADP Hunter Plus). Format: biochemical. As to conditions: 100 μM ATP, 100 μM PIMtide. How it is done:
(§1) PIM kinase activities were measured by using the commercial ADP Hunter™ Plus assay (DiscoveRx Ref. #33-016), a homogeneous assay measuring ADP accumulation, as a universal product of kinase activity. PIM-1 and PIM-2 proteins were obtained by purification as it is described by Martinez-Gonzalez et. al. Eur. J. Med Chem. 2019, 168, 87-109 and PIM-3 was acquired from Millipore (Cat #14-738). The assay was done following general manufacturer recommendations and adapting protein and substrates concentrations to optimal conditions. Kinase buffer was 15 mM HEPES, pH 7.4, 20 mM NaCl, 1 mM EGTA, 0.02% Tween-20, 10 mM MgCl2 and 0.1 mg/mL LBGG (bovine y-globulin). All PIM kinases assays were done at 100 μM PIM tide (ARKRRRHPSGPPTA), as peptide substrate, and 100 μM ATP. Protein concentration was 50, 350 and 200 pg/μl for PIM-1, 2 and 3, respectively. In order to calculate the IC50 of described compounds, serial 1:3 dilutions were prepared and the reaction started by addition of ATP. Incubation was done for 1 h at 25° C. Reagents A and B (DiscoveRx) were sequentially added to the wells and plates were incubated for 30 min at 37° C. Fluorescence counts were read in a Victor instrument (Perkin Elmer) with the recommended settings (544 and 580 nm as excitation and emission wavelengths, respectively). Values were plot against inhibitor concentration and fit to a sigmoid dose-response curve using Activity Base software from IDBS.

The next assay addresses T2, PIM-1 (Homo sapiens, UniProt P11309).
T2 construct: made in house
In words: Protein PIM kinase assay (ADP Hunter Plus). Format: biochemical. As to conditions: 100 μM ATP, 100 μM PIMtide. How it is done: as §1

Another assay concerns the target T3, PIM-2 (Homo sapiens, UniProt Q9P1W9).
T3 construct: made in house
In words: Protein PIM kinase assay (ADP Hunter Plus). Format: biochemical. As to conditions: 100 μM ATP, 100 μM PIMtide. As to the method: as §1

The subject of assay [1] is BAD S112 phosphorylation in H1299 cells overexpressing PIM-1 (H1299Pim1). Description: BAD S112 phosphorylation inhibition assay (in Cell ELISA). Format: cell-based. As to conditions: Homo sapiens, NCI-H1299, 4 hours, medium without FBS, read-out: BAD PH 1299PIM 1 ELIWO. As to the method: The efficacy of the compounds of the invention on the inhibition of BAD phosphorylation was measured by an in Cell ELISA.
Materials: H1299 cells overexpressing PIM-1 (H1299Pim1). DMSO Plates: 96-well-Polystyrene, Untreated, Round-Bottom plates from Costar (Cat #3797). Cell Plates: 96-Flat bottom biocoated with Poly-D-Lysin plates with lid from Becton Dickinson (Cat #354651). Cell Culture Medium: DMEM high glucose, 10% Fetal Bovine Serum, 2 mM L-Glutamine, P/S. Antibodies: phospho BAD S112 antibody from Cell Signaling (cat. #9291S), anti-rabbit conjugated with peroxidase from Amersham (cat. #3619). Reagent: SuperSignal ELISA femto from Pierce (cat. #1001110).
Procedure: Cells were seeded in 15000 cells per 200 μl per well into 96-well plates and incubated for 16 h at 37° C., 5% CO2. On day two, nine serial 1:2 compound dilutions were made in DMSO in a 96-well plate. The compounds were added to duplicate wells in 96-well cell plates using a FX BECKMAN robot (Beckman Coulter) and were incubated at 37° C. under CO2 atmosphere in medium without fetal bovine serum (FBS). After 4 hours, relative levels of BAD S112 phosphorylation were measured in Cell ELISA using SuperSignal ELISA Femto substrate (Pierce) and read on VICTOR (Perkin Elmer). EC50 values were calculated using ActivityBase from IDBS.

The subject of another assay is DU145. Description: Combination antiproliferation with Example 1. Format: cell-based. Details: key to Synergy: ++++ indicates a very strong synergistic effect; +++ a strong synergistic effect; ++ a synergistic effect. Conditions: agent in combination with Example 1, DU145, Prostate Cancer. How it is done:
(§2) The cells were harvested just before reaching confluency, counted with a haemocytometer and diluted with media. Cells were then seeded in 96-well microtiter plates at a density of 4,000 cells/well. […] Compounds were weighed out and diluted with DMSO to a final concentration of 10 mM. From here a “mother plate” with serial dilutions was prepared at 200× the final concentration in the culture. The final concentration of DMSO in the tissue culture media should not exceed 0.5%. The appropriate volume of the compound solution (2 μl) was added automatically (Beckman FX 96 tip) to 0.2 ml media to make it up to the final concentration for each drug. Each concentration was assayed in duplicate. Cells were exposed to the compounds for 72 h and then processed for CellTiter-Glo® Luminescent Cell Viability Assay (Promega) read out according to manufacturer's Instruction and read on EnVision (Perkin Elmer). GI50 values were calculated using ActivityBase from IDBS. […] A combination index score was calculated by the Chou and Talalay method (CalcuSyn software, Biosoft). The combination partner compounds were as follows: • the PI3K inhibitor pictisilib (GDC-0941); • the MEK inhibitor merdametinib (PD-0325901); and the EGFR and ErbB2 inhibitor lapatinib

The subject of another assay is Jeko-1. Description: Combination antiproliferation with Example 1. Set-up: key to Synergy: ++++ indicates a very strong synergistic effect; +++ a strong synergistic effect; ++ a synergistic effect. Conditions: agent in combination with Example 1, Jeko-1, Mantle Cell Lymphoma. Format: cell-based. As to the method: (§3) The cells were harvested just before reaching confluency, counted with a haemocytometer and diluted with media. Cells were then seeded in 96-well microtiter plates at a density of 4,000 cells/well. Cells were incubated for 24 hours before adding the compounds.
(§4) Compounds were weighed out and diluted with DMSO to a final concentration of 10 mM. From here a “mother plate” with serial dilutions was prepared at 200× the final concentration in the culture. The final concentration of DMSO in the tissue culture media should not exceed 0.5%. The appropriate volume of the compound solution (2 μl) was added automatically (Beckman FX 96 tip) to 0.2 ml media to make it up to the final concentration for each drug.
(§5) Each concentration was assayed in duplicate. Cells were exposed to the compounds for 72 h and then processed for CellTiter-Glo® Luminescent Cell Viability Assay (Promega) read out according to manufacturer's Instruction and read on EnVision (Perkin Elmer). GI50 values were calculated using ActivityBase from IDBS.
(§6) A combination index score was calculated by the Chou and Talalay method (CalcuSyn software, Biosoft).

A further assay has as its system A549. In words: Combination antiproliferation with Example 1. As to conditions: agent in combination with Example 1, A549, Lung Cancer. Details: key to Synergy: ++++ indicates a very strong synergistic effect; +++ a strong synergistic effect; ++ a synergistic effect. Format: cell-based. How it is done:
as §3, §4, §5, §6

Another assay relates to HCT116. In words: Combination antiproliferation with Example 1. Format: cell-based. Details: key to Synergy: ++++ indicates a very strong synergistic effect; +++ a strong synergistic effect; ++ a synergistic effect. Conditions: agent in combination with Example 1, HCT116, Colon Cancer. How it is done:
as §3, §4, §5, §6

The test system of another assay is T47D. Description: Combination antiproliferation with Example 1. Details: key to Synergy: ++++ indicates a very strong synergistic effect; +++ a strong synergistic effect; ++ a synergistic effect. Format: cell-based. As to conditions: agent in combination with Example 1, T47D, Breast Cancer. As to the method:
as §3, §4, §5, §6

A further assay concerns SKMEL19. Description: Combination antiproliferation with Example 1. Format: cell-based. Set-up: key to Synergy: ++++ indicates a very strong synergistic effect; +++ a strong synergistic effect; ++ a synergistic effect. Conditions: agent in combination with Example 1, SKMEL19, Melanoma. As to the method:
as §2

The subject of the next assay is HT29. Description: Combination antiproliferation with Example 1. Format: cell-based. Set-up: key to Synergy: ++++ indicates a very strong synergistic effect; +++ a strong synergistic effect; ++ a synergistic effect. Conditions: agent in combination with Example 1, HT29, Colon Cancer. How it is done: as §2
Another assay deals with U87MG. Description: Combination antiproliferation with Example 1. Format: cell-based. Set-up: key to Synergy: ++++ indicates a very strong synergistic effect; +++ a strong synergistic effect; ++ a synergistic effect. Conditions: agent in combination with Example 1, U87MG, Glioblastoma. How it is done: as §3, §4, §5, §6
The next assay deals with BT-474. In words: In vitro potency against breast cancer cell lines (CellTiter Glo). Conditions: Homo sapiens, BT-474, 72 h; read-out: absolute IC50 BT-474. Format: cell-based. As to the method: (§7) To prepare the complete medium FBS and appropriate additives were added according to the information sheet provided by the vendor and mixed gently. The cell name and complete medium and passage number marked on the flask were checked, and the culture medium removed and discarded using a vacuum pump. […] 3.0 ml of Trypsin-EDTA solution was added to the flask and the cells observed under an inverted microscope until cell layer is dispersed. 8.0 ml of complete growth medium was added and the cells aspirated by gently pipetting. The cell suspension was transferred to a centrifuge tube and centrifuged at 800-1000 rpm for 3-5 minutes. The supernatant was discarded using a vacuum pump, and an appropriate volume of complete medium added. The cell pellet was suspended by gently pipetting, and the cell numbers counted with Vi-cell XR and the cells adjusted to appropriate density. 100 μL of cell suspension to 96-well opaque-walled clear bottom plates was added according to the planned plate layout and the plates placed in the CO2 incubator overnight.
(§8) c. […] Meanwhile the day 0 plate was measured by Cell TiterGlo as listed below.
(§9) d. Cells were incubated with the compounds for 72 h at 5% CO2, 37° C.
(§10) The CellTiter-Glo buffer was thawed and equilibrated to room temperature prior to use. The lyophilized CellTiter-Glo substrate was equilibrated to room temperature prior to use. The appropriate volume of CellTiter-Glo buffer was transferred into the amber bottle containing CellTiter-Glo substrate to reconstitute the lyophilized enzyme/substrate mixture, thereby forming the CellTiter-Glo reagent. Mixing was carried out by gently vortexing, swirling or by inverting the contents to obtain a homogeneous solution, the CellTiter-Glo substrate going into solution easily in less than one minute.
(§11) The plate and its contents were equilibrated to room temperature for approximately 30 minutes, after which 100 μL of CellTiter-Glo reagent was added to the assay plate by Multidrop Combi instrument and the contents mixed for 10 minutes on an orbital shaker to induce cell lysis. The plate was allowed to incubate at room temperature for 10 minutes to stabilize luminescent signal and the clear bottom pasted with white back seal and the luminescence recorded with Enspire with the settings: Luminescence, measurement time 0.1 ms.

The next assay has as its system HCC1143. Described as above. Format: cell-based. Conditions: Homo sapiens, HCC1143, 72 h; read-out: absolute IC50 HCC1143. As to the method: as §7, §8, §9, §10, §11
In a further assay the test system is T-47D. Described as above. Format: cell-based. As to conditions: Homo sapiens, T47D, 72 h; read-out: absolute IC50 T-47D. As to the method: as §7, §8, §9, §10, §11
A further assay has as its system OCI-M1. Description: In vitro potency against leukemia cell lines (CellTiter Glo). Format: cell-based. As to conditions: 72 hours, read-out: absolute IC50 OCI-M1. How it is done: as §7, §8, §9, §11
(§12) In all cases, the incubation time was 72 hours and the cell lines were grown as a suspension. The seeding density was […] in a 96 well plate.

A further assay concerns KG-1. Described as above. Format: cell-based. As to conditions: Homo sapiens, 72 hours, read-out: absolute IC50 KG-1. How it is done: as §7, §8, §9, §11, §12

Bounds are passed on as bounds.

T2 sequence (P11309 whole entry): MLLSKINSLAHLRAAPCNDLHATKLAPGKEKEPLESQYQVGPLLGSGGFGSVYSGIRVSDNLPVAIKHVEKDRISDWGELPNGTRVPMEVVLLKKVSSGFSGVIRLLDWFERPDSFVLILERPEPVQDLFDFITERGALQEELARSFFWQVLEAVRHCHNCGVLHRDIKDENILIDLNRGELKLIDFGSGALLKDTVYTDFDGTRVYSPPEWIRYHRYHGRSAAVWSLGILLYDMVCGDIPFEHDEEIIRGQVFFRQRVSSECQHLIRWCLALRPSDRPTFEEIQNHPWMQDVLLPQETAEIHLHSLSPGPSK
T3 sequence (Q9P1W9 whole entry): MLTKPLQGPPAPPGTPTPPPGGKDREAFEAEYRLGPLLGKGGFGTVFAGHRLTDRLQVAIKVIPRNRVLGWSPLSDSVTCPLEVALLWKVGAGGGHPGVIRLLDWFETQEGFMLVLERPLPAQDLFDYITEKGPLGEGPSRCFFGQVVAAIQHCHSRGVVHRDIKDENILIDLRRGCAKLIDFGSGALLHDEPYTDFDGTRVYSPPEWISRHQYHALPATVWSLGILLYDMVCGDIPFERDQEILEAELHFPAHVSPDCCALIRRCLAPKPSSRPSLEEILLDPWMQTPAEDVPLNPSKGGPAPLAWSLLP

With `CN1CCOc2c1c(N[C@H]1CC[C@@](C)(O)CC1)nn1c(-c3ccc(F)c(C(F)(F)F)c3)nnc21` [Example 2, 4-[3-(4-Fluoro-3-trifluoromethyl-phenyl)-6-methyl-7,8-dihydro-6H-9-oxa-1,2,3a,4,6-pentaaza-cyclopenta[a]naphthalen-5-ylamino]-1-methyl-cyclohexanol], the IC50 on PIM-3 is 1 to 5 nM; at PIM-1, under 1 nM; on PIM-2 it was 1 to 5 nM. Moreover, the EC50 in [1] worked out at 7.11 nM.
Regarding `CC1(O)CCC(Nc2nn3c(-c4cccc(OC(F)(F)F)c4)nnc3c3c2CCCO3)CC1` (centres unmarked) [Example 3, 1-Methyl-4-[3-(3-trifluoromethoxy-phenyl)-7,8-dihydro-6H-9-oxa-1,2,3a,4-tetraaza-cyclopenta[a]naphthalen-5-ylamino]-cyclohexanol], the results for the IC50 on PIM-3, at PIM-1 and at PIM-2 were 1 to 5 nM, under 1 nM and 5 to 10 nM, respectively. For the same compound, the EC50 in assay [1] amounted to 4.15 nM.
`CS(=O)(=O)CCNCc1ccc(-c2ccc3ncnc(Nc4ccc(OCc5cccc(F)c5)c(Cl)c4)c3c2)o1` [Lapatinib, lapatinib]: the “C.I. (combination index)” value in the assay with DU145 turned out to be 0.52; in the assay with Jeko-1, 0.70; in the assay with A549, 0.47; in the assay with HCT116 it was 0.51; in the assay on T47D, 0.27. In addition, the Synergy entry is “++” in the assay with DU145; “++” in the assay with Jeko-1; “++” with A549; “++” with HCT116; “+++” in the assay with T47D.
In the case of `O=C(NOC[C@H](O)CO)c1ccc(F)c(F)c1Nc1ccc(I)cc1F` [Merdametinib, merdametinib], the figures for the “C.I. (combination index)” value in the assay with DU145, in the assay with SKMEL19 and in the assay with HT29 were 0.55, 0.038 and 0.62, respectively. Moreover, the Synergy entry in the assay on DU145 is reported as “++”; in the assay on SKMEL19, “++++”; in the assay with HT29, “++”.
For the compound `CS(=O)(=O)N1CCN(Cc2cc3nc(-c4cccc5[nH]ncc45)nc(N4CCOCC4)c3s2)CC1` [Pictisilib, pictisilib], the “C.I. (combination index)” value in the assay with DU145 stood at 0.24; in the assay with SKMEL19, 0.54; in the assay on U87MG, 0.46. The Synergy entry in the assay on DU145 is reported as “+++”; in the assay on SKMEL19, “++”; in the assay on U87MG it was “++”.
On to `CN[C@@H]1C[C@H]2O[C@@](C)([C@@H]1OC)n1c3ccccc3c3c4c(c5c6ccccc6n2c5c31)C(=O)NC4` [Staurosporine], for which the IC50 came out at 76.6 nM in the assay with BT-474; 11 nM in the assay with HCC1143; 219 nM with T-47D; 48.4 nM with OCI-M1; 23.2 nM in the assay with KG-1.

Source of the values: US20250042918A1, “COMPOUNDS” (Fundación Del Sector Públlco Estatal Centro Nacional De …, priority 2021, published 2025).
